From patent US12030875B2, “EIF4E inhibitors and uses thereof” (PIC Therapeutics, Inc., priority 2018, dated 2024)

target: T1, Human eIF4E (Homo sapiens, UniProt P06730); assay: Human eIF4E/4G2 binding assay (TR-FRET); details: eIF4E (aa 28-217) with biotin labeled 4G2 peptide
T1 construct: Human eIF4E (aa 28-217) with a C-terminal His-tag; made in house
Method in brief: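 His-tagged human eIF4E (aa 28-217), refolded from E. coli inclusion bodies, at 82.5 nM working stock; compounds in 10-point 2-fold DMSO series, preincubated 15 min at RT in 50 mM NaPi pH 6.5, 50 mM KCl, 1 mM DTT. Biotin-4G2 peptide added, 15 min, then Eu-streptavidin/APC-anti-His, 20 min; normalized 665/615 nm TR-FRET signal; IC50 by curve fit.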

T1 sequence (P06730 28-217): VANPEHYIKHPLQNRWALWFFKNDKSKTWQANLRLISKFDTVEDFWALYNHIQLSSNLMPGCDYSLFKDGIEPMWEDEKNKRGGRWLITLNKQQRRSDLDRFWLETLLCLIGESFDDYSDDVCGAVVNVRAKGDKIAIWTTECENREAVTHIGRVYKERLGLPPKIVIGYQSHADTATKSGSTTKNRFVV

IC50 [µM]	Compound
> 25	O=C(O)C1CN(c2nc(-c3ccc(-c4cnco4)cc3)c(-c3ccccc3)s2)CCO1 (stereo not shown) [Compound I-56]
> 25	O=C(O)C1CN(c2nc(-c3ccc(Oc4ccccc4)cc3)c(-c3cccnc3)s2)CCO1 (stereo not shown) [Compound I-215]
> 25	O=C(O)C1CCN(c2nc(-c3ccc(-c4ccc(F)cc4)cc3)cs2)C1 (stereo not shown) [Compound I-115]
> 25	CC(CC(=O)O)Nc1nc(-c2ccc(-c3cnco3)cc2)c(-c2cncnc2)s1 (stereo not shown) [Compound I-23]
> 25	CC1(C(=O)O)CN(c2nc(-c3ccc(-c4ccc(F)cc4)cc3)c(-c3cccnc3)s2)C1 [Compound I-85]
5 to 25	CCCC(CNc1nc(-c2ccc(-c3ccc(F)cc3)cc2)c(Br)s1)C(=O)O (stereo not shown) [Compound I-88]
5 to 25	O=C(O)C1CCN(c2nc(-c3ccc(Oc4ccccc4)cc3)c(-c3cccc4[nH]ccc34)s2)CC1 [Compound I-212]
< 5	O=C(O)C1CCCN(c2nc(-c3ccc(-c4ccc(F)cc4)cc3)c(C(F)(F)F)s2)C1 (stereo not shown) [Compound I-233]
< 5	O=C(O)C1CCN(c2nc(-c3ccc(Oc4ccccc4)cc3)c(-c3ccccc3)s2)C1 (stereo not shown) [Compound I-191]
> 25	O=C(O)C1CN(c2nc(-c3ccc(-c4cnco4)cc3)c(-c3cccc4[nH]ccc34)s2)CCO1 (stereo not shown) [Compound I-59]
> 25	O=C(O)C1CN(c2nc(-c3ccc(-c4cnco4)cc3)c(-c3cncnc3)s2)CCO1 (stereo not shown) [Compound I-57]
> 25	O=C(O)C1CC(CNc2nc(-c3ccc(Oc4ccccc4)cc3)c(-c3cccnc3)s2)C1 (stereo not shown) [Compound I-203]
> 25	CC(C)C(CC(=O)O)Nc1nc(-c2cncnc2)c(-c2ccc(-c3cnco3)cc2)s1 (stereo not shown) [Compound I-2]
< 5	CC1(C(=O)O)CN(c2nc(-c3ccc(-c4ccc(F)cc4)cc3)c(-c3ccccc3)s2)C1 [Compound I-83]
5 to 25	CC1(C(=O)O)CN(c2nc(-c3ccc(Oc4ccccc4)cc3)c(-c3cccc4[nH]ccc34)s2)C1 [Compound I-166]
< 5	CC(C)[C@H](CC(=O)O)Nc1nc(-c2ccc(-c3ccc(F)cc3)cc2)c(Br)s1 [Compound I-222]
> 25	O=C(O)C1CN(c2nc(-c3ccc(-c4cnco4)cc3)c(-c3cccnc3)s2)C1 [Compound I-11]
> 25	CC(C)(CNc1nc(-c2ccc(Oc3ccccc3)cc2)c(-c2cccnc2)s1)C(=O)O [Compound I-156]
> 25	O=C(O)CC1CCCN1c1nc(-c2ccc(-c3ccc(F)cc3)nc2)c(-c2cncnc2)s1 (stereo not shown) [Compound I-112]
> 25	CC(C)C(CC(=O)O)Nc1nc(-c2ccccc2)c(-c2ccc(-c3cnco3)cc2)s1 (stereo not shown) [Compound I-1]
< 5	O=C(O)C1CC(CNc2nc(-c3ccc(-c4ccc(F)cc4)cc3)c(-c3ccccc3)s2)C1 (stereo not shown) [Compound I-128]
> 25	CCCC(CNc1nc(-c2ccc(-c3ccc(F)cc3)cc2)cs1)C(=O)O (stereo not shown) [Compound I-87]
< 5	O=C(O)C1CN(c2nc(-c3ccc(-c4ccc(F)cc4)cc3)c(-c3ccccc3)s2)CCO1 (stereo not shown) [Compound I-140]
> 25	CC(CNc1nc(-c2ccc(-c3cnco3)cc2)c(-c2ccccc2)s1)C(=O)O (stereo not shown) [Compound I-27]
> 25	O=C(O)C1CCN(c2nc(-c3ccc(-c4cnco4)cc3)c(-c3cncnc3)s2)C1 (stereo not shown) [Compound I-41]

IC50 [µM]	Compound
< 5	O=C(O)C1CCCN(c2nc(-c3ccc(-c4ccc(F)cc4)cc3)c(-c3cccc4[nH]ccc34)s2)C1 (stereo not shown) [Compound I-109]
> 25	CC(CC(=O)O)Nc1nc(-c2ccc(-c3ccc(F)cc3)cc2)c(-c2cncnc2)s1 (stereo not shown) [Compound I-96]
< 5	O=C(O)C1CN(c2nc(-c3ccc(Oc4ccccc4)cc3)c(-c3ccccc3)s2)CCO1 (stereo not shown) [Compound I-213]
> 25	O=C(O)C1CCN(c2nc(-c3ccc(-c4cnco4)cc3)c(-c3cccnc3)s2)C1 (stereo not shown) [Compound I-42]
> 25	O=C(O)C1CCN(c2nc(-c3ccc(-c4cnco4)cc3)c(-c3ccccc3)s2)CC1 [Compound I-52]
< 5	O=C(O)C1CCCN(c2nc(-c3ccc(-c4ccc(F)cc4)cc3)c(-c3ccccc3)s2)C1 (stereo not shown) [Compound I-106]
5 to 25	O=C(O)C1CC(CNc2nc(-c3ccc(-c4ccc(F)cc4)cc3)c(Br)s2)C1 (stereo not shown) [Compound I-127]
< 5	O=C(O)C1(CNc2nc(-c3ccc(-c4ccc(F)cc4)cc3)c(-c3ccccc3)s2)CC1 [Compound I-122]
5 to 25	CC1(C(=O)O)CN(c2nc(-c3ccc(-c4ccc(F)cc4)cc3)c(Br)s2)C1 [Compound I-82]
< 5	O=C(O)[C@H]1CCCN(c2nc(-c3ccc(Oc4ccccc4)cc3)c(-c3ccccc3)s2)C1 [Compound I-228]
> 25	O=C(O)CC1CCCN1c1nc(-c2ccc(-c3cnco3)cc2)cs1 (stereo not shown) [Compound I-35]
> 25	CC1(C(=O)O)CN(c2nc(-c3ccc(-c4cnco4)cc3)c(-c3cccc4[nH]ccc34)s2)C1 [Compound I-16]
< 5	O=C(O)C[C@@H]1CCCN1c1nc(-c2ccc(-c3ccc(F)cc3)cc2)c(-c2ccccc2)s1 [Compound I-226]
5 to 25	CC1(C(=O)O)CCCN(c2nc(-c3ccc(-c4ccc(F)cc4)cc3)c(-c3cccnc3)s2)C1 (stereo not shown) [Compound I-146]
> 25	O=C(O)C1CCN(c2nc(-c3ccc(Oc4ccccc4)cc3)c(-c3cccnc3)s2)C1 (stereo not shown) [Compound I-193]
> 25	CC(CNc1nc(-c2ccc(-c3cnco3)cc2)cs1)C(=O)O (stereo not shown) [Compound I-26]
> 25	CC(C)(CNc1nc(-c2ccc(-c3cnco3)cc2)c(-c2ccccc2)s1)C(=O)O [Compound I-5]
< 5	O=C(O)C1CCCN(c2nc(-c3ccc(Oc4ccccc4)cc3)c(-c3cccc4[nH]ccc34)s2)C1 (stereo not shown) [Compound I-185]
5 to 25	O=C(O)C1CN(c2nc(-c3ccc(-c4ccc(F)cc4)cc3)c(-c3cccc4[nH]ccc34)s2)C1 [Compound I-80]
> 25	CC(CC(=O)O)Nc1nc(-c2ccc(-c3cnco3)cc2)c(-c2ccccc2)s1 (stereo not shown) [Compound I-22]
> 25	CC1(C(=O)O)CN(c2nc(-c3ccc(Oc4ccccc4)cc3)cs2)C1 [Compound I-162]
< 5	O=C(O)C1CCCN(c2nc(-c3ccc(-c4ccc(F)cc4)cc3)c(C3CC3)s2)C1 (stereo not shown) [Compound I-232]
5 to 25	CC1(C(=O)O)CCCN(c2nc(-c3ccc(Oc4ccccc4)cc3)c(-c3cccnc3)s2)C1 (stereo not shown) [Compound I-219]
> 25	O=C(O)C1CN(c2nc(-c3ccc(-c4ccc(F)cc4)cc3)c(-c3cccnc3)s2)C1 [Compound I-79]
